Structures can show the parent of a compound that is named as a salt.

By IC50 is commonly meant the concentration needed to halve the response being measured. High values mean weaker potency, low ones greater potency. As a reminder, the EC50 is the midpoint of the concentration-response curve. Read a high EC50 as weaker potency.

The test system of assay [1] is MRSA. The experiment in a line: Inhibition of MRSA biofilm formation (crystal violet). The format is cell-based, Staphylococcus aureus. Particulars: Staphylococcus aureus. As for the experimental part:
(§1) A dose-response study was then initiated in which both the IC50 and EC50 value of each compound towards the bacterial strains were determined (Table 1). Here, IC50 is defined as the concentration of compound that inhibits 50% biofilm development while EC50 is defined as the concentration of compound that disperses 50% of a pre-formed biofilm.
Procedure to Determine the Inhibitory Effect of Test Compounds on E. faecium, MRSA, S. epidermidis, PAO1 and MDRAB Biofilm Formation:
(§2) Inhibition assays were performed by taking an overnight culture of bacterial strain and subculturing it at an OD600 of 0.01 into the necessary media (brain heart infusion for E. faecium, tryptic soy broth with a 0.5% glucose supplement (TSBG) for MRSA, Luria-Bertani (LB) media for MDRAB, Luria-Bertani media without NaCl (LBNS) for PAO1 and tryptic soy broth with a 0.5% glucose supplement and a 3.0% NaCl supplement (TGN) for S. epidermidis. Stock solutions of predetermined concentrations of the test compound were then made in the necessary media. These stock solutions were aliquoted (100 μL) into the wells of the 96-well PVC microtiter plate. Sample plates were then wrapped in GLAD Press n′ Seal® followed by an incubation under stationary conditions for 24 h at 37° C. After incubation, the media was discarded from the wells and the plates were washed thoroughly with water. Plates were then stained with 100 μL of 0.1% solution of crystal violet (CV) and then incubated at ambient temperature for 30 min. Plates were washed with water again and the remaining stain was solubilized with 200 μL of 95% ethanol. A sample of 125 μL of solubilized CV stain from each well was transferred to the corresponding wells of a polystyrene microtiter dish. Biofilm inhibition was quantitated by measuring the OD540 of each well in which a negative control lane wherein no biofilm was formed served as a background and was subtracted out.
as §2, with “2-(2-amino-1H-benzo[d]imidazol-6-ylcarbamoyl)-3,4,5,6-tetrachlorobenzoic acid hydrochloride” for “test compound”, “media. Samples were then doped with 10.0 μM FeSO4 with samples with no test compound to examine effects of 10.0 μM FeSO4 on biofilm formation.” for “media.”

Assay [2] relates to MRSA. The assay can be described thus: Dispersion of preformed MRSA biofilm. The format is cell-based, Staphylococcus aureus. Particulars: concentration that disperses 50% of a pre-formed biofilm. As for the experimental part:
as §1
Procedure to Determine the Dispersal Effect of Test Compounds on E. faecium, MRSA and S. epidermidis Preformed Biofilms:
Dispersion assays were performed by taking an overnight culture of bacterial strain and subculturing it at an OD600 of 0.01 into the necessary media (brain heart infusion for E. faecium, tryptic soy broth with a 0.5% glucose supplement (TSBG) for MRSA and tryptic soy broth with a 0.5% glucose supplement and a 3.0% NaCl supplement (TGN) for S. epidermidis. The resulting bacterial suspension was aliquoted (100 μL) into the wells of a 96-well PVC microtiter plate. Plates were then wrapped in GLAD Press n′ Seal® followed by an incubation under stationary conditions at ambient temperature to establish the biofilms. After 24 h, the media was discarded from the wells and the plates were washed thoroughly with water. Stock solutions of predetermined concentrations of the test compound were then made in the necessary media. These stock solutions were aliquoted (100 μL) into the wells of the 96-well PVC microtiter plate with the established biofilms. Media alone was added to a subset of the wells to serve as a control. Sample Plates were then incubated for 24 h at 37° C. After incubation, the media was discarded from the wells and the plates were washed thoroughly with water. Plates were then stained with 100 μL of 0.1% solution of crystal violet (CV) and then incubated at ambient temperature for 30 min. Plates were washed with water again and the remaining stain was solubilized with 200 μL of 95% ethanol. A sample of 125 μL of solubilized CV stain from each well was transferred to the corresponding wells of a polystyrene microtiter dish. Biofilm dispersion was quantitated by measuring the OD540 of each well in which a negative control lane wherein no biofilm was formed served as a background and was subtracted out.

The subject of assay [3] is E. faecium, MRSA and S. epidermidis. The experiment in a line: Mitigating effects of iron on biofilm formation inhibition. The class given is cell-based. Particulars: increasing Fe(II) concentration, 10.0 μM FeSO4, hydrochloride. As for the experimental part: Next the mechanistic basis of how compound 3 was able to inhibit and disperse bacterial biofilms was investigated. Iron levels are known to effect Gram-positive biofilm development (Deighton, M.; Borland, R. Infection and Immunity 1993, 61, 4473-4479) and were deemed a plausible driver of the observed anti-biofilm activity. To examine Fe(II) related antibiofilm behavior, a dose-dependent study was performed in which the ability of 3 to inhibit biofilm development was measured under increasing Fe(II) concentration. […]
Inhibition assays were performed by taking an overnight culture of bacterial strain and subculturing it at an OD600 of 0.01 into the necessary media (brain heart infusion for E. faecium, tryptic soy broth with a 0.5% glucose supplement (TSBG) for MRSA, Luria-Bertani (LB) media for MDRAB, Luria-Bertani media without NaCl (LBNS) for PAO1 and tryptic soy broth with a 0.5% glucose supplement and a 3.0% NaCl supplement (TGN) for S. epidermidis. Stock solutions of predetermined concentrations of the 2-(2-amino-1H-benzo[d]imidazol-6-ylcarbamoyl)-3,4,5,6-tetrachlorobenzoic acid hydrochloride were then made in the necessary media. […] Biofilm inhibition was quantitated by measuring the OD540 of each well in which a negative control lane wherein no biofilm was formed served as a background and was subtracted out.

The nature of assay [4]: Divalent zinc binding via 1H NMR spectroscopy. As to conditions: 0, 0.5, 1.0 equivalents ZnCl2; DMSO. As to the method: (§3) Given this Zn(II)-dependence, the ability of 3 to bind zinc directly was determined to ascertain if the mechanism was potentially occurring via a Zn(II)-binding mechanism. To answer this question, an ^1H NMR binding experiment was performed in which the chemical shifts of 3 were measured in the presence of 0 equivalents, 0.5 equivalents, and 1.0 equivalents ZnCl2. […] As a control, the same experiment was performed with FeSO4.
Procedure to Determine the Divalent Zinc Binding Effects of Test Compounds via ^1H NMR Spectroscopy:
^1H NMR Spectra were obtained of the test compounds in DMSO on a 400 MHz NMR in the absence and in the presence of one equivalent of ZnCl2. 2-(2-amino-1H-benzo[d]imidazol-5-ylcarbamoyl)-3,4,5,6-tetrachlorobenzoic acid hydrochloride was tested at a 228 mM. 2,3,4,5-tetrachloro-6-(phenylcarbamoyl)benzoic acid was tested at 275 mM. 1H-benzo[d]imidazol-2-amine hydrochloride was tested at 649 mM.

The nature of assay [5]: 1H NMR binding control experiment with FeSO4. Particulars: 0, 0.5, or 1.0 equivalents FeSO4. As for the experimental part: as §3

Take `Nc1nc2ccc(NC(=O)c3c(Cl)c(Cl)c(Cl)c(Cl)c3C(=O)O)cc2[nH]1` [Compound 3, 2-(2-amino-1H-benzo[d]imidazol-6-ylcarbamoyl)-3,4,5,6-tetrachlorobenzoic acid hydrochloride]: the 50% inhibitory concentration (IC50) in assay [1] is 860 nM; in assay [1] (concentration that inhibits 50% biofilm development), 890 ± 10 nM. Also, the concentration for a half-maximal effect (EC50) was 2920 nM in assay [2] (Staphylococcus aureus) and 2900 nM in assay [2] (hydrochloride). Moreover, the “effect of Fe(II) on biofilm inhibitory activity” value in assay [3] is given as “not affected by increasing Fe(II) concentrations”; in assay [3] (listed as 2-(2-amino-1H-benzo[d]imidazol-6-ylcarbamoyl)-3,4,5,6-tetrachlorobenzoic acid hy), “no effect on biofilm inhibitory activity”. Further, in assay [4], the “zinc binding, change of 1H NMR signals” value is listed as “directly binding ZnCl2”. For the same compound, the “change in NMR signal with FeSO4” value in assay [5] is given as “No change”.

Values taken from patent US9221765B2, “Inhibition and dispersion of bacterial biofilms with benzimidazole derivatives” (North Carolina State University, priority 2009, dated 2015).
